Measurements published in patent publication US20180338980A1, “AROMATIC SULFONAMIDE DERIVATIVES” (BAYER PHARMA AKTIENGESELLSCHAFT, priority 2015, published 2018).

Molecular target: T1, P2X4 (Homo sapiens, UniProt Q99571)
T1 sequence (Q99571 1-388): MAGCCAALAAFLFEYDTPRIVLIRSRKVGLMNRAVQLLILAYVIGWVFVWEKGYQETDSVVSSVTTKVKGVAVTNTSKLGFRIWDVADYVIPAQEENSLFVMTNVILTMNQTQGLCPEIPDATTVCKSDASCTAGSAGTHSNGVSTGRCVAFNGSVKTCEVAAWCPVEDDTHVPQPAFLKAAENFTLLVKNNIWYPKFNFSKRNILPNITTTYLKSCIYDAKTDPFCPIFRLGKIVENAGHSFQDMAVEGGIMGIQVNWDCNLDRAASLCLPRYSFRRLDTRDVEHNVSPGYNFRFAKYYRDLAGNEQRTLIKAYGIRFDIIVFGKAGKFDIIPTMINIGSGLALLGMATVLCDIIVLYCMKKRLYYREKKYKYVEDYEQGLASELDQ
Experiment: Assay B: human P2X4 receptor cell line, mitochondrial photina luminescence (agonist Bz-ATP at EC50)
Assay type: cell-based
Parameters: host or cells: HEK 293 (recombinant, constitutively expressing; with mitochondrial photina in Assay B)
Conditions: HEK human P2X4 cell line, photina luminescence, agonist Bz-ATP at EC50, average; for Emax: read-out: human P2X4 Assay B avg Efficacy
Summary of the method: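 Recombinant cell line constitutively expressing human P2X4 and mitochondrial photina photoprotein, reconstituted with coelenterazine. Receptor stimulated with Bz-ATP at EC50; calcium influx read immediately as luminescence.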

Compound | IC50 | Emax
CN(C)C(=O)c1ccccc1CC(=O)Nc1ccc(Oc2cccc(Cl)c2)c(S(N)(=O)=O)c1 [Example 198, 2-(2-{[4-(3-Chlorophenoxy)-3-sulfamoylphenyl]amino}-2-oxoethyl)-N,N-dimethylbenzamide] | 4.74 µM | 60%
Cc1ccc(F)c(Oc2ccc(NC(=O)Cc3ccccc3)cc2S(N)(=O)=O)c1 [Example 251, N-[4-(2-Fluoro-5-methylphenoxy)-3-sulfamoylphenyl]-2-phenylacetamide] | 0.392 µM | 100%
NS(=O)(=O)c1cc(NC(=O)Cc2c(C(F)(F)F)ccc(Cl)c2Cl)ccc1Oc1cccc(Cl)c1 [Example 127, N-[4-(3-chlorophenoxy)-3-sulfamoylphenyl]-2-[2,3-dichloro-6-(trifluoromethyl)phenyl]acetamide] | 1.05 µM | 66%
NS(=O)(=O)c1cc(NC(=O)Cc2ccc(C(F)(F)F)cc2)ccc1Oc1ccc(Cl)cc1 [Example 227, N-[4-(4-Chlorophenoxy)-3-sulfamoylphenyl]-2-[4-(trifluoromethyl)phenyl]acetamide] | 1.77 µM | 69%
NS(=O)(=O)c1cc(NC(=O)Cc2ccccc2Cl)ccc1Oc1ccc[nH]c1=O [Example 075, 2-(2-Chlorophenyl)-N-{4-[(2-oxo-1,2-dihydropyridin-3-yl)oxy]-3-sulfamoylphenyl}acetamide] | 2.23 µM | 77%
NS(=O)(=O)c1cc(NC(=O)Cc2ccccc2Cl)ccc1Oc1cccc(N2CCCCC2)c1 [Example 049, 2-(2-Chlorophenyl)-N-{4-[3-(piperidin-1-yl)phenoxy]-3-sulfamoylphenyl}acetamide] | 0.773 µM | 92%
CN1CCC(Oc2ccc(NC(=O)Cc3ccccc3Cl)cc2S(N)(=O)=O)CC1 [Example 238, 2-(2-Chlorophenyl)-N-{4-[(1-methylpiperidin-4-yl)oxy]-3-sulfamoylphenyl}acetamide] | > 16 µM | –
NS(=O)(=O)c1cc(NC(=O)Cc2ccccc2Cl)ccc1OCc1ncccn1 [Example 154, 2-(2-Chlorophenyl)-N-[4-(pyrimidin-2-ylmethoxy)-3-sulfamoylphenyl]acetamide] | 0.252 µM | 77%
NS(=O)(=O)c1cc(NC(=O)Cc2cc3c(cc2Cl)OCCO3)ccc1Oc1cccc(Cl)c1 [Example 277, 2-(7-Chloro-2,3-dihydro-1,4-benzodioxin-6-yl)-N-[4-(3-chlorophenoxy)-3-sulfamoylphenyl]acetamide] | 0.185 µM | 45%
Cc1c(C#N)cccc1Oc1ccc(NC(=O)Cc2ccccc2Cl)cc1S(N)(=O)=O [Example 046, 2-(2-Chlorophenyl)-N-[4-(3-cyano-2-methylphenoxy)-3-sulfamoylphenyl]acetamide] | 0.841 µM | 75%
CNC(=O)c1cccc(CC(=O)Nc2ccc(Oc3cccc(Cl)c3)c(S(N)(=O)=O)c2)c1 [Example 203, 3-(2-{[4-(3-Chlorophenoxy)-3-sulfamoylphenyl]amino}-2-oxoethyl)-N-methylbenzamide] | 1.35 µM | 69%
NS(=O)(=O)c1cc(NC(=O)Cc2ccccc2)ccc1Oc1ccccc1OC(F)(F)F [Example 074, 2-Phenyl-N-{3-sulfamoyl-4-[2-(trifluoromethoxy)phenoxy]phenyl}acetamide] | 0.609 µM | 52%
NS(=O)(=O)c1cc(NC(=O)Cc2ccccc2)ccc1Oc1cccc(F)c1 [Example 249, N-[4-(3-Fluorophenoxy)-3-sulfamoylphenyl]-2-phenylacetamide] | 0.544 µM | 73%
Cc1ccc(Cl)c(CC(=O)Nc2ccc(Oc3cccc(Cl)c3)c(S(N)(=O)=O)c2)c1F [Example 121, 2-(6-Chloro-2-fluoro-3-methylphenyl)-N-[4-(3-chlorophenoxy)-3-sulfamoylphenyl]acetamide] | 0.218 µM | 62%
